The values below come from patent US20230058134A1, “ALDOSE REDUCTASE INHIBITORS FOR THE TREATMENT OF ACUTE RESPIRATORY DISTRESS SYNDROME, ACUTE LUNG INFLAMMATION/INJURY, CARDIAC INJURY AND ANTI-VIRAL THERAPY” (Applied Therapeutics, Inc., priority 2020, published 2023).

“Also recorded” adds a separate entry of the source.

In series [1] the test system is COVID-19 with signs of ARDS and/or ALI. Description: Treatment of Critical COVID-19 (single-patient example written in present tense). Type of series: in vivo. Particulars: one patient, 1500 mg oral twice a day.
Series [2] relates to COVID-19 infection. Put plainly: Open-label prospective phase 2 study of Compound A in high risk patients hospitalized with COVID-19, with matched registry controls. Particulars: for Median LOS (95% CI): length of hospital stay, 1500 mg twice daily up to 14 days; for Estimated difference in median LOS / Estimated difference in median LOS (95% CI): Hodges-Lehmann estimate.
Series [3] relates to COVID-19 with severe ARDS. Put plainly: Treatment of critical COVID-19 patients with severe ARDS under Emergency Investigational New Drug Applications. Type of series: in vivo, human. Particulars: 1500 mg twice a day. As for the experimental part:
Five critical COVID-19 patients admitted to the intensive care unit with severe ARDS were treated with Compound A (caficrestat) 1500 mg twice a day. All patients were on 100% high flow oxygen, had failed all other available treatment options, including anti-IL^6/anti-IL-17 therapy, and were at high risk of rapid progression to mechanical ventilation. The patients were treated under Emergency Investigational New Drug Applications as the last option to prevent mortality.

The mark [4] stands for this setting: 10 participants, 1500 mg twice daily.
Setting [5] is: eight participants who survived and were discharged.

Take `O=C(O)Cc1nn(Cc2nc3cc(C(F)(F)F)ccc3s2)c(=O)c2nccnc12` [Compound A, caficrestat]: in series [1], the “signs of ARDS and/or ALI” value was “diminished” and the viral burden result is recorded as “reduced”. In addition, in series [2] (setting [4]), the “adverse events leading to early discontinuation of treatment” value is given as “mild-moderate grade adverse events possibly linked to study drug in three participants” and the “safety laboratory monitoring during hospitalization” value was “did not demonstrate any treatment-related abnormal findings”. Moreover, the percent mortality in series [2] (10 participants, death during index hospitalization due to COVID-19 complications) came out at 20%. The “Median LOS (95% CI)” value in series [2] (All Subjects, N=10) is 5 (4, 29). Further, the “Estimated difference in median LOS” value in series [2] (All Subjects, Compound A vs Match 1 control group (N=16)) is listed as 1.5. Besides, the “Estimated difference in median LOS” value in series [2] (All Subjects, Compound A vs Match 2 control group (N=60)) is listed as 14. Moreover, the “Median LOS (95% CI)” value in series [2] (Surviving Subjects, N=8) is 5 (4, 35). The “Estimated difference in median LOS (95% CI)” value in series [2] (Surviving Subjects, Compound A vs Match 1 control group (N=11)) is 1 (−2, 19). Moreover, in series [2] (Surviving Subjects, Compound A vs Match 2 control group (N=43)), the “Estimated difference in median LOS (95% CI)” value is given as 9 (0, 42). In series [2] (setting [5]), the “median hospital length of stay” value came out at 5 days and the “range of hospital length of stay” value was in the range of 3 to 35 days. In addition, in series [2] (hospitalized COVID-19 patients with diabetes mellitus and hypertension, 1500 mg twice daily), the safety and tolerability result is “generally safe and well tolerated”. Further, the “participants who survived and were discharged from the hospital” value in series [2] (of 10 treated participants) was “Eight of the ten treated patients survived”. In addition, the “progression to mechanical ventilation” value in series [2] (ten treated patients) was “None of the treated patients progressed to mechanical ventilation”. The “mortality compared with matched control groups” value in series [2] (vs control group 1 (31.3%) and control group 2 (28.3%), vs non-high risk population) is “numerically lower; also recorded: decreased to the level observed for the non-high risk population”. Besides, the “length of hospital stay compared with matched control groups” value in series [2] (vs the two matched control groups) is listed as “numerically less”. In series [3] (five ICU patients on 100% high flow oxygen), the “patients recovered and discharged from the hospital” value is on record as “Four of the five”. In addition, the patients who died entry in series [3] (five ICU patients, patient had a do not resuscitate order) is recorded as “One patient”.
